# Experimental data taken from PMC4006692 (Journal of biomolecular screening, 2013).
# How the values were obtained:
# [1] = system: 293T cells; conditions: final DMSO concentration
# [2] = biological target: HIV-1 Nef dimerization (Human immunodeficiency virus type 1 group M subtype B, UniProt P03407); conditions: up to a final DMSO concentration of 2.5%
# Sequence of HIV-1 Nef dimerization (P03407 2-210): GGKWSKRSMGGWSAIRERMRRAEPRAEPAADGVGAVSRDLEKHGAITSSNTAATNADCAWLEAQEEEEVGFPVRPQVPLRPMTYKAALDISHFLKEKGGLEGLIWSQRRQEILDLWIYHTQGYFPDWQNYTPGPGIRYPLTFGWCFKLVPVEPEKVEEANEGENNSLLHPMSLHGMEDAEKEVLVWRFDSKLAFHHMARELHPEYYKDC
structure (smiles),measurement,setting,value
C[S+](C)[O-] [DMSO],IC50 of cell loss (cell density),[1],approximately 1%
same,concentration causing cell loss,[1],above 0.6%
same,BiFC/mRFP ratio of WT2A,[2],essentially unchanged
